Patent US20220235064A1 (WELLMARKER BIO CO., LTD., priority 2019, published 2022)
Counter-ions that a name gives are not always drawn.

What was measured:
[1] = target: T1, RON tyrosine kinase (Homo sapiens, UniProt Q04912); assay: Enzyme inhibitory activity against RON tyrosine kinase (TR-FRET); assay type: biochemical; settings: RON (Carna Bioscience)
T1 construct: purchased Carna Bioscience
Outline: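 Recombinant RON was preincubated with compound for 15 min at RT in 50 mM HEPES pH 7.5, 10 mM MgCl2, 1 mM EGTA, 2 mM DTT, 0.01% Tween-20. Enzyme (0.4 nM), ATP (60 μM) and tyrosine peptide (400 nM) were prepared at 2×, 4× and 4× final. After 60 min at RT, EDTA/Eu-anti-phosphotyrosine stop; IC50 from 665 nm TR-FRET emission.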

[2] = test system: cancer cell line KM12C, in which RON is activated; assay: Cell growth inhibitory ability in RON-activated cancer cell line (MTS); assay type: cell-based; settings: Homo sapiens, 48 hours, absorbance 490 nm
Outline: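 KM12C cells (RON-activated, MEM with FBS) exposed to compound […] for 48 h. MTS added 24 h after treatment ended, incubated 4 h at 37° C, absorbance read at 490 nm. IC50 derived from absorbance.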

[3] = test system: cancer cell line HT29, in which mutated RON (Δ160) is expressed; assay: Cell-killing efficacy in RON-mutated cancer cell line HT29 (trypan blue); assay type: cell-based; settings: Homo sapiens, HT-29, 48 hours, trypan blue, n=2, read-out: Cell death (%) Cancer cell line HT29
Procedure: Experimental Example 4: Measurement of Cell-Killing Efficacy of Example Compounds in RON-Mutated Cancer Cell Lines
Each of two colorectal cancer cell lines, that is, the cancer cell line HT29 (30038, KCLB, RPMI+10% FBS), in which mutated RON (Δ160) is expressed, and the cancer cell line SW620 (CCL-227, ATCC, RPMI+10% FBS), in which mutated RON (Δ155) is expressed, was dispensed into each 60 mm^2 dish at 1×10^5 cells. After 24 hours, the dish was treated with each of the example compounds at a concentration of 1 μM or 5 μM while performing medium exchange, and then reaction was allowed to proceed for 48 hours. After 48 hours, centrifugation was performed for 4 minutes at 1,500 rpm to collect cells and cell fluid. Thereafter, living cells and dead cells were quantified (n=2) using a trypan blue solution (15250-061, Gibco), and statistical analysis was performed using Excel-T-test. Here, as a negative control, only a solvent (0.10% DMSO) was used; and as a positive control, N-(4-(2-amino-3-chloropyridin-4-yloxy)-3-fluorophenyl)-4-ethoxy-1-(4-fluorophenyl)-2-oxo-1,2-dihydropyridine-3-carboxamide, which is the compound of Example 1 in WO 2008/058229 A1, was used.

[4] = test system: cancer cell line KM12C, in which RON is activated; assay: Cell-killing efficacy in RON-activated cancer cell line (trypan blue); assay type: cell-based; settings: Homo sapiens, 48 hours, trypan blue, n=2, read-out: Cell death (%) Cancer cell line KM12C
Outline: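 KM12C cells seeded 1×10^5 per 60 mm^2 dish in MEM + 10% FBS, then exposed 24 h later to compound at 1 μM or 5 μM for 48 h.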

T1 sequence (Q04912 25-1400): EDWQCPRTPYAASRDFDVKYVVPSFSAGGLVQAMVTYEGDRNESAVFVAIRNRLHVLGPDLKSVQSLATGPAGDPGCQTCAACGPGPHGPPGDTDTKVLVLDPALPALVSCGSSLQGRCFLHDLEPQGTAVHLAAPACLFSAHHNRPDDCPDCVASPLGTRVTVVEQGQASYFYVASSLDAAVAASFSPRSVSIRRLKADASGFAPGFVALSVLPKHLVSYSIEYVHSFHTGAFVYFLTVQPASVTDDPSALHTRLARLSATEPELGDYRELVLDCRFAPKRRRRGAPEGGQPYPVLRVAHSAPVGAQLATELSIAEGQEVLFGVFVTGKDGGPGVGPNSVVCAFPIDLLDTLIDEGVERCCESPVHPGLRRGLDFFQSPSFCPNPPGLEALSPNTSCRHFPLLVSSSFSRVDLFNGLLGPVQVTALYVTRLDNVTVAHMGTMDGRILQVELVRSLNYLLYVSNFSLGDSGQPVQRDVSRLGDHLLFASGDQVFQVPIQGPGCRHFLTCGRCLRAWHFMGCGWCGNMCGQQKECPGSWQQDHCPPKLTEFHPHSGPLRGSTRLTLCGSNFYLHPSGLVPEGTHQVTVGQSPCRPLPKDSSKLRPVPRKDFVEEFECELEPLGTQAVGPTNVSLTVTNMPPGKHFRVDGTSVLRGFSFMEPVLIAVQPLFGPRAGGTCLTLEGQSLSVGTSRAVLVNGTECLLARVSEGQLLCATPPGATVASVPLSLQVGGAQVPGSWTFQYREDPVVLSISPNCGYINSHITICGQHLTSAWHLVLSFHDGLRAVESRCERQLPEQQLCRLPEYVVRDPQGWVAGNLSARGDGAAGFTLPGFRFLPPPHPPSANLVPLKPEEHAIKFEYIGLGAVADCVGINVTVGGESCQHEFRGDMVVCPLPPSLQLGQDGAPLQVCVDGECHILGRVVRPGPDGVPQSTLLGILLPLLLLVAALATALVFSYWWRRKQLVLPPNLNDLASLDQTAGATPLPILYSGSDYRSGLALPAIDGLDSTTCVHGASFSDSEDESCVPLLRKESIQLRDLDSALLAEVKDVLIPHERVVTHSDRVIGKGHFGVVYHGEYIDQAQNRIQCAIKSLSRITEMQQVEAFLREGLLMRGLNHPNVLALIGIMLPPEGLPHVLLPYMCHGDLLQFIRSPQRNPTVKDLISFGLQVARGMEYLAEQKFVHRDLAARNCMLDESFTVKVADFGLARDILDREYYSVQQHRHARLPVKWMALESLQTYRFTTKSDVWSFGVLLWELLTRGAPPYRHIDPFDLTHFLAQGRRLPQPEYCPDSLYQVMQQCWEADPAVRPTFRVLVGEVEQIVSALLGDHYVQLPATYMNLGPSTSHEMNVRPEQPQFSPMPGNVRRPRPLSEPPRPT

Row | IC50 [1] [nM] | IC50 [2] [nM] | SMILES | cytotoxicity at 1 µM [3] [%] | cytotoxicity at 5 µM [3] [%] | cytotoxicity at 1 µM [4] [%] | cytotoxicity at 5 µM [4] [%]
1 | 0.82 | 2 | COCCNCc1ccc(-c2cc3nccc(Oc4ccc(NC(=O)c5c6c(cn(-c7ccc(F)cc7)c5=O)CCO6)cc4F)c3s2)nc1 [Example 1, N-(3-Fluoro-4-((2-(5-(((2-methoxyethyl)amino)methyl)pyridin-2-yl)thieno[3,2-b]pyridin-7-yl)oxy)phenyl)-5-(4-fluorophenyl)-6-oxo-2,3,5,6-tetrahydrofuro[3,2-c]pyridine-7-carboxamide hydrochloride] | 9.35 | 38.2 | 10.3 | 68.6
2 | 1.25 | 67 | COCCNCc1ccc(-c2cc3nccc(Oc4ccc(NC(=O)c5c6c(cn(-c7ccccc7)c5=O)CCO6)cc4F)c3s2)nc1 [Example 2, N-(3-Fluoro-4-((2-(5-(((2-methoxyethyl)amino)methyl)pyridin-2-yl)thieno[3,2-b]pyridin-7-yl)oxy)phenyl)-6-oxo-5-phenyl-2,3,5,6-tetrahydrofuro[3,2-c]pyridine-7-carboxamide hydrochloride] | 15.4 | 80.5 | 38.4 | 93.4
3 | 14.2 |  | Cn1ncc2cc(Oc3ccc(NC(=O)c4c5c(cn(-c6ccc(F)cc6)c4=O)CCO5)cc3F)c(-c3cn[nH]c3)cc21 [Example 64] | 16 | 18.8 | 13.1 | 97.1
4 | 0.1 | 2 | COc1cc2nccc(Oc3ccc(NC(=O)c4c5c(cn(-c6ccc(F)cc6)c4=O)CCO5)cc3F)c2cc1OCCCN1CCOCC1 [Example 176, N-(3-Fluoro-4-((7-methoxy-6-(3-morpholinopropoxy)quinolin-4-yl)oxy)phenyl)-5-(4-fluorophenyl)-6-oxo-2,3,5,6-tetrahydrofuro[3,2-c]pyridine-7-carboxamide] |  |  | 4.1 | 20.2
5 | 6.83 | 3 | COc1cc2nccc(Oc3ccc(NC(=O)c4c5c(cn(-c6ccc(F)cc6)c4=O)CCO5)cc3F)c2cc1NC(=O)CCN1CCOCC1 [Example 180, N-(3-Fluoro-4-((7-methoxy-6-(3-morpholinopropanamido)quinolin-4-yl)oxy)phenyl)-5-(4-fluorophenyl)-6-oxo-2,3,5,6-tetrahydrofuro[3,2-c]pyridine-7-carboxamide] |  |  | 18.1 | 20.6
6 | 3.35 | 8 | COc1cc2c(Oc3ccc(NC(=O)c4c5c(cn(-c6ccc(F)cc6)c4=O)CCO5)cc3F)ccnc2cc1NC(=O)CN1CCOCC1 [Example 182, N-(3-Fluoro-4-((6-methoxy-7-(2-morpholinoacetamido)quinolin-4-yl)oxy)phenyl)-5-(4-fluorophenyl)-6-oxo-2,3,5,6-tetrahydrofuro[3,2-c]pyridine-7-carboxamide] | 7.6 | 10.2 | 25.1 | 44.4
7 | 2.5 | 3 | COc1cc2c(Oc3ccc(NC(=O)c4c5c(cn(-c6ccc(F)cc6)c4=O)CCO5)cc3F)ccnc2cc1NC(=O)CCN1CCOCC1 [Example 183, N-(3-Fluoro-4-((6-methoxy-7-(3-morpholinopropanamido)quinolin-4-yl)oxy)phenyl)-5-(4-fluorophenyl)-6-oxo-2,3,5,6-tetrahydrofuro[3,2-c]pyridine-7-carboxamide] | 7.8 | 87.5 | 27.3 | 40.3
